#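 96-well plates; 48 h exposure; 5 concentrations. Endpoints by linear interpolation between flanking doses. Not reached: highest tested concentration assigned. Here, GI50 denotes the concentration required for 50% inhibition of growth.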 The source made the active and inactive calls. No stated cut-off is given here; in the data, active = GI50 up to about 1.1 µM and inactive = higher.
# Columns and labels:
# Test in all cases: DTP human tumour cell line panel, 48 h
# [1] = system: 786-0
# [2] = system: A498
# [3] = system: A549
# [4] = system: ACHN
# [5] = system: BT-549
# [6] = system: CAKI-1
# [7] = system: CCRF-CEM
# [8] = system: COLO 205
# [9] = system: DU-145
# [10] = system: EKVX
# [11] = system: HCC 2998
# [12] = system: HCT-116
# [13] = system: HCT-15
# [14] = system: HL-60
# [15] = system: HOP-62
# [16] = system: HOP-92
# [17] = system: HT-29
# [18] = system: Hs-578T
# [19] = system: IGROV-1
# [20] = system: K562
# [21] = system: KM12
# [22] = system: LOX IMVI
# [23] = system: M14
# [24] = system: MCF7
# [25] = system: MDA-MB-231
# [26] = system: MDA-MB-435
# [27] = system: MDA-N
# [28] = system: MOLT-4
# [29] = system: Malme-3M
# [30] = system: NCI-H226
# [31] = system: NCI-H23
# [32] = system: NCI-H460
# [33] = system: NCI-H522
# [34] = system: NCI/ADR-RES
# [35] = system: OVCAR-3
# [36] = system: OVCAR-4
# [37] = system: OVCAR-5
# [38] = system: OVCAR-8
# [39] = system: PC-3
# [40] = system: RPMI-8226
# [41] = system: RXF 393
# [42] = system: SF-268
# [43] = system: SF-295
# [44] = system: SF-539
# [45] = system: SK-MEL-28
# [46] = system: SK-MEL-2
# [47] = system: SK-MEL-5
# [48] = system: SK-OV-3
# [49] = system: SN12C
# [50] = system: SNB-19
# [51] = system: SNB-75
# [52] = system: SR
# [53] = system: SW-620
# [54] = system: T47D
# [55] = system: TK-10
# [56] = system: U-251
# [57] = system: UACC-257
# [58] = system: UACC-62
# [59] = system: UO-31
smiles,measurement,setting,value
CC(=O)n1nc(-c2nc3ccccc3nc2Cl)cc1Cl,GI50,[1],23.6 µM (inactive)
same,GI50,[2],> 71.4 µM (inactive)
same,GI50,[3],29.5 µM (inactive)
same,GI50,[4],11.6 µM (inactive)
same,GI50,[5],5.89 µM (inactive)
same,GI50,[6],3.34 µM (inactive)
same,GI50,[7],2.45 µM (inactive)
same,GI50,[8],18.4 µM (inactive)
same,GI50,[9],20.6 µM (inactive)
same,GI50,[10],12.5 µM (inactive)
same,GI50,[11],36.6 µM (inactive)
same,GI50,[12],3.78 µM (inactive)
same,GI50,[13],11.2 µM
same,GI50,[14],8.02 µM (inactive)
same,GI50,[15],20.3 µM (inactive)
same,GI50,[16],> 69.8 µM (inactive)
same,GI50,[17],23 µM (inactive)
same,GI50,[18],34.5 µM (inactive)
same,GI50,[19],30.1 µM (inactive)
same,GI50,[20],3.61 µM (inactive)
same,GI50,[21],19.4 µM (inactive)
same,GI50,[22],5.47 µM (inactive)
same,GI50,[23],4.43 µM (inactive)
same,GI50,[24],26.9 µM (inactive)
same,GI50,[25],28.8 µM (inactive)
same,GI50,[26],3.94 µM (inactive)
same,GI50,[27],8.36 µM (inactive)
same,GI50,[28],1.9 µM (inactive)
same,GI50,[29],23.4 µM (inactive)
same,GI50,[30],10.3 µM (inactive)
same,GI50,[31],6.24 µM (inactive)
same,GI50,[32],32.8 µM (inactive)
same,GI50,[33],7.78 µM (inactive)
same,GI50,[34],22.3 µM (inactive)
same,GI50,[35],19.8 µM (inactive)
same,GI50,[36],19.5 µM (inactive)
same,GI50,[37],34.7 µM (inactive)
same,GI50,[38],26.4 µM (inactive)
same,GI50,[39],30.9 µM (inactive)
same,GI50,[40],13.6 µM (inactive)
same,GI50,[41],40.7 µM (inactive)
same,GI50,[42],38.6 µM (inactive)
same,GI50,[43],29.6 µM (inactive)
same,GI50,[44],2.88 µM (inactive)
same,GI50,[45],24.7 µM (inactive)
same,GI50,[46],25.6 µM (inactive)
same,GI50,[47],4.68 µM (inactive)
same,GI50,[48],20.5 µM (inactive)
same,GI50,[49],7.78 µM (inactive)
same,GI50,[50],30.5 µM (inactive)
same,GI50,[51],25.8 µM (inactive)
same,GI50,[52],3.34 µM (inactive)
same,GI50,[53],2.88 µM (inactive)
same,GI50,[54],68.4 µM (inactive)
same,GI50,[55],37.4 µM (inactive)
same,GI50,[56],26.3 µM (inactive)
same,GI50,[57],> 68.1 µM (inactive)
same,GI50,[58],27.2 µM (inactive)
same,GI50,[59],1.39 µM (inactive)
O=C(NC(Nc1ccc(F)cc1)(C(F)(F)F)C(F)(F)F)C(C(F)(F)F)C(F)(F)F,GI50,[1],> 54.1 µM (inactive)
same,GI50,[2],62.2 µM (inactive)
same,GI50,[3],5.53 µM (inactive)
same,GI50,[4],1.71 µM (inactive)
same,GI50,[5],18.7 µM (inactive)
same,GI50,[6],> 54.7 µM (inactive)
same,GI50,[7],3.13 µM (inactive)
same,GI50,[8],6.65 µM (inactive)
same,GI50,[9],9.93 µM (inactive)
same,GI50,[10],24.7 µM (inactive)
same,GI50,[11],12 µM (inactive)
same,GI50,[12],4.2 µM (inactive)
same,GI50,[13],2.13 µM
same,GI50,[14],1.04 µM (active)
same,GI50,[15],99.1 µM (inactive)
same,GI50,[16],51.3 µM (inactive)
same,GI50,[17],15.5 µM (inactive)
same,GI50,[18],20.4 µM (inactive)
same,GI50,[19],7.62 µM (inactive)
same,GI50,[20],0.401 µM (active)
same,GI50,[21],0.908 µM (active)
same,GI50,[22],0.617 µM (active)
same,GI50,[23],0.402 µM (active)
same,GI50,[24],16.7 µM (inactive)
same,GI50,[25],52 µM (inactive)
same,GI50,[26],1.13 µM (inactive)
same,GI50,[27],9.84 µM (inactive)
same,GI50,[28],4.86 µM (inactive)
same,GI50,[29],48 µM (inactive)
same,GI50,[30],50.5 µM (inactive)
same,GI50,[31],18.1 µM (inactive)
same,GI50,[32],7.98 µM (inactive)
same,GI50,[33],13.2 µM (inactive)
same,GI50,[34],4.46 µM (inactive)
same,GI50,[35],44.3 µM (inactive)
same,GI50,[36],5.52 µM (inactive)
same,GI50,[37],> 96.6 µM (inactive)
same,GI50,[38],3.18 µM (inactive)
same,GI50,[39],4.91 µM (inactive)
same,GI50,[40],8.11 µM (inactive)
same,GI50,[41],33.3 µM (inactive)
same,GI50,[42],49.8 µM (inactive)
same,GI50,[43],3.01 µM (inactive)
same,GI50,[44],21.4 µM (inactive)
same,GI50,[45],17.5 µM (inactive)
same,GI50,[46],3.63 µM (inactive)
same,GI50,[47],1.43 µM (inactive)
same,GI50,[48],72.1 µM (inactive)
same,GI50,[49],50.2 µM (inactive)
same,GI50,[50],48.2 µM (inactive)
same,GI50,[51],36.5 µM (inactive)
same,GI50,[52],18.6 µM (inactive)
same,GI50,[53],1.65 µM (inactive)
same,GI50,[54],3.15 µM (inactive)
same,GI50,[55],> 24.9 µM (inactive)
same,GI50,[56],57.4 µM (inactive)
same,GI50,[57],3.3 µM (inactive)
same,GI50,[58],0.199 µM (active)
same,GI50,[59],2.39 µM (inactive)
